This note sets out measurements from patent US9409870B2, “Compounds” (CHIESI FARMACEUTICI S.p.A., priority 2014, dated 2016).

For the assay, the target named is T1, human neutrophil elastase (HNE) (Homo sapiens, UniProt P08246).
T1 construct: purchased Sigma E8140
T1 sequence (P08246 30-247 limits assumed): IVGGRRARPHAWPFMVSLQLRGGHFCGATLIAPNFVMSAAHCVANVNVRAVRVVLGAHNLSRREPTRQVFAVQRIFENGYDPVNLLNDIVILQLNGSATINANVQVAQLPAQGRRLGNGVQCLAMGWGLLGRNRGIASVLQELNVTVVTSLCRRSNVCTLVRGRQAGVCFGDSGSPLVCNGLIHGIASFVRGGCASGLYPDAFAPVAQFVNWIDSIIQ
The assay can be described thus: HNE enzyme activity assay (fluorogenic peptide substrate MeOSuc-Ala-Ala-Pro-Val-AMC). The assay is classed as biochemical. The note with it: human leukocyte elastase 0.00072 U/mL, substrate 100 μM, 25° C., 30 minutes, pH 7.5; at least two separate experiments; read-out: FINE inhibition (HNE enzyme inhibition, IC50 values).

As a reminder, the IC50 is the concentration needed to halve the response being measured. Regarding `Cc1c(-c2ccnn2-c2ccc(C#N)cc2)n(C(=O)NCC2CCN(C)CC2)c(=O)n1-c1cccc(C(F)(F)F)c1` [Example 54, 5-[2-(4-Cyano-phenyl)-2H-pyrazol-3-yl]-4-methyl-2-oxo-3-(3-trifluoromethyl-phenyl)-2,3-dihydro-imidazole-1-carboxylic acid (1-methyl-piperidin-4-ylmethyl)-amide], the IC50 is 1 to 10 nM. For the compound `Cc1c(-c2ccnn2-c2ccc(C#N)cc2S(C)(=O)=O)[nH]c(=O)n1-c1cccc(C(F)(F)F)c1` [Example 55, 3-Methanesulfonyl-4-{5-[5-methyl-2-oxo-1-(3-trifluoromethyl-phenyl)-2,3-dihydro-1H-imidazol-4-yl]-pyrazol-1-yl}-benzonitrile], the IC50 was greater than 50 nM. Next, `Cc1c(-c2ccnn2-c2ccc(C#N)cc2Br)n(C(=O)NC2CCCC2)c(=O)n1-c1cccc(C(F)(F)F)c1` [Example 56, 5-[2-(2-Bromo-4-cyano-phenyl)-2H-pyrazol-3-yl]-4-methyl-2-oxo-3-(3-trifluoromethyl-phenyl)-2,3-dihydro-imidazole-1-carboxylic acid cyclopentylamide]: 1 to 10 nM; `Cc1c(-c2ccn(-c3ccc(C#N)cc3Br)n2)n(C(=O)NC2CCCC2)c(=O)n1-c1cccc(C(F)(F)F)c1` [Example 57, 5-[1-(2-Bromo-4-cyano-phenyl)-1H-pyrazol-3-yl]-4-methyl-2-oxo-3-(3-trifluoromethyl-phenyl)-2,3-dihydro-imidazole-1-carboxylic acid cyclopentylamide]: 10 to 50 nM. Next, `Cc1c(-c2ccnn2-c2ccc(C#N)cc2F)n(C(=O)NC2CCCC2)c(=O)n1-c1cccc(C(F)(F)F)c1` [Example 58, 5-[2-(4-Cyano-2-fluoro-phenyl)-2H-pyrazol-3-yl]-4-methyl-2-oxo-3-(3-trifluoromethyl-phenyl)-2,3-dihydro-imidazole-1-carboxylic acid cyclopentylamide]: less than 1 nM; `Cc1c(-c2nccn2-c2ccc(C#N)cc2)[nH]c(=O)n1-c1cccc(C(F)(F)F)c1` [Example 59, 4-[5′-Methyl-2′-oxo-1′-(3-trifluoromethyl-phenyl)-2′,3′-dihydro-1′H-[2,4]biimidazolyl-1-yl]-benzonitrile]: 10 to 50 nM. Next, `Cc1c(-c2nccn2-c2ccc(C#N)cc2)n(C(=O)NC2CCCC2)c(=O)n1-c1cccc(C(F)(F)F)c1` [Example 60, 1-(4-Cyano-phenyl)-5′-methyl-2′-oxo-1′-(3-trifluoromethyl-phenyl)-1′,2′-dihydro-1H-[2,4]biimidazolyl-3′-carboxylic acid cyclopentylamide]: less than 1 nM; `Cc1c(-c2nccn2-c2ccc(C#N)cc2)n(C(=O)NC2CCC2)c(=O)n1-c1cccc(C(F)(F)F)c1` [Example 61, 1-(4-Cyano-phenyl)-5′-methyl-2′-oxo-1′-(3-trifluoromethyl-phenyl)-1′,2′-dihydro-1H-[2,4′]biimidazolyl-3′-carboxylic acid cyclobutylamide]: less than 1 nM; `Cc1c(-c2nccn2-c2ccc(C#N)cc2)n(C(=O)NCc2ccc(S(C)(=O)=O)cc2)c(=O)n1-c1cccc(C(F)(F)F)c1` [Example 62, 1-(4-Cyano-phenyl)-5′-methyl-2′-oxo-1′-(3-trifluoromethyl-phenyl)-1′,2′-dihydro-1H-[2,4′]biimidazolyl-3′-carboxylic acid 4-methanesulfonyl-benzylamide]: less than 1 nM.

In the case of `Cc1c(-c2ncnn2-c2ccc(C#N)cc2)n(C(=O)NC2CCCC2)c(=O)n1-c1cccc(C(F)(F)F)c1` [Example 63, 5-[2-(4-Cyano-phenyl)-2H-[1,2,4]triazol-3-yl]-4-methyl-2-oxo-3-(3-trifluoromethyl-phenyl)-2,3-dihydro-imidazole-1-carboxylic acid cyclopentylamide], the IC50 is less than 1 nM.
